Consider 8 molecules from patent publication US11471417B2 (Small Pharma Ltd, priority 2020, dated 2022).

Data set [1] in a line: In vitro human mitochondrial fraction intrinsic clearance of SPL026 with/without MAO-A and MAO-B inhibitors. In kind it is in vitro ADME. Conditions: for half-life / microsomal CLint: 0.5 mg/mL human liver mitochondrial fraction.
Data set [2] can be described thus: In vitro human mitochondrial fraction intrinsic clearance of SPL026 and SPL028 analogues. Conditions: for microsomal CLint: Intrinsic Clearance.
The nature of data set [3]: In vitro intrinsic clearance in human hepatocytes with and without MAO inhibitors (first experiment). Conditions: both, human, hepatocytes (pooled, 10 donors), human hepatocytes.
Data set [4] deals with Human (mixed gender) hepatocytes. The data set is described as above. Conditions: for Half-life % change / Intrinsic clearance % change: with MAO inhibitors vs no inhibitors.
Data set [5] in a line: In vitro intrinsic clearance in human hepatocytes, D2, D6 and D8 DMT (third experiment). Particulars: both, hepatocytes (pooled, 10 donors).
Setting [6] is: with 100 nM Deprenyl/Selegiline (MAO-B inhibitor), Deprenyl (MAO-B inhibitor) 100 nM.
Where [7] appears, read: 0.5 mg/mL human liver mitochondrial fraction, first experiment r7-r12, repeat r13-r20.
[8] abbreviates: human, liver mitochondrial fraction, Half-Life R1, human liver mitochondrial fraction, replicate R1.
Where [9] appears, read: human, liver mitochondrial fraction, Half-Life R2, human liver mitochondrial fraction, replicate R2.
[10] abbreviates: human, liver mitochondrial fraction, Half-Life R3, human liver mitochondrial fraction, replicate R3.
[11] abbreviates: human, liver mitochondrial fraction, Half-Life R4, human liver mitochondrial fraction, replicate R4.
[12] abbreviates: human, liver mitochondrial fraction, 0.5 mg/mL human liver mitochondrial fraction, first experiment r7-r12, repeat r13-r20.
Where [13] appears, read: Half-life With inhibitors, with MAO-A/B inhibitor combination (Table 5).
The mark [14] stands for this setting: Half-life Without inhibitors, without MAO-A/B inhibitor combination (Table 5).
The mark [15] stands for this setting: Intrinsic clearance With inhibitors, with MAO-A/B inhibitor combination (Table 5).
[16] abbreviates: Intrinsic clearance Without inhibitors, without MAO-A/B inhibitor combination (Table 5).
[17] abbreviates: in vitro half-life With inhibitors, 5 μM, with 100 nM clorgyline and 100 nM Deprenyl/Selegiline (Table 4).
Where [18] appears, read: in vitro half-life Without inhibitors, 5 μM, without MAO inhibitors (Table 4).
Setting [19] is: with 100 nM clorgyline (MAO-A inhibitor), Clorgyline (MAO-A inhibitor) 100 nM.
[20] abbreviates: human, liver mitochondrial fraction, Half-life, 0.5 mg/mL human liver mitochondrial fraction, first experiment r7-r12, repeat r13-r20.
Where [21] appears, read: human hepatocytes, MAO inhibitors vs none.

Each structure is given as a SMILES string.

As to `NCc1ccccc1` [Benzylamine], the half-life was 30.4 min in data set [1] (DMSO Vehicle (no inhibitor)); above 420 min in data set [1] (setting [6]); 24.3 min in data set [2] (setting [8]); 22.1 min in data set [2] (setting [9]); 21.2 min in data set [2] (setting [10]); 23.5 min in data set [2] (setting [11]). Besides, the microsomal CLint in data set [1] (DMSO Vehicle (no inhibitor)) is 45.7 µL/min/mg; in data set [1] (setting [6]), below 3.3 µL/min/mg; in data set [2] (setting [12]), 60 µL/min/mg. The “Intrinsic Clearance” value in data set [2] (setting [7]) turned out to be 62.1 μL/min/mg protein. For the same molecule, the half-life at 5 μM in data set [3] (setting [13]) came to 460 min; in data set [3] (setting [14]), 76.3 min; in data set [3] (setting [17]) it was 460 min; in data set [3] (setting [18]), 76.3 min. Besides, the figures for the hepatocyte CLint at 5 μM in data set [3] (setting [15]) and in data set [3] (setting [16]) were below 3 µL/min/1e6 cells and 16.7 µL/min/1e6 cells, respectively. For the same molecule, the Half-life % change in data set [4] (human hepatocytes) is above 83.41%. The “Intrinsic clearance % change” value in data set [4] (human hepatocytes) is listed as below −450%.

In the case of `O=C(O)Cc1ccccc1Nc1c(Cl)cccc1Cl` [Diclofenac], in data set [5], the half-life at 5 μM worked out at 20.7 min and the hepatocyte CLint at 5 μM came to 92.5 µL/min/1e6 cells.

In data set [5], `COc1ccc([C@@H]2Sc3ccccc3N(CCN(C)C)C(=O)[C@@H]2OC(C)=O)cc1` [Diltiazem] came in with a half-life at 5 μM of 87.3 min and a hepatocyte CLint at 5 μM of 22 µL/min/1e6 cells.

Turning to `CN(C)CCc1c[nH]c2ccccc12` [SPL026, N,N-dimethyltryptamine], the half-life in data set [1] (DMSO Vehicle (no inhibitor)) is 33.7 min; in data set [1] (setting [6]) it was 32.5 min; in data set [1] (setting [19]), above 374 min; in data set [2] (setting [7]), 8.6 min; in data set [2] (setting [8]), 8.8 min; in data set [2] (setting [9]) it was 8.4 min. In addition, the half-life was 7.6 min in data set [2] (setting [10]), 8.3 min in data set [2] (setting [11]) and 7.9 min in data set [2] (setting [20]). Moreover, the microsomal CLint is 42.9 µL/min/mg in data set [1] (DMSO Vehicle (no inhibitor)), 42.7 µL/min/mg in data set [1] (setting [6]), below 3.9 µL/min/mg in data set [1] (setting [19]) and 175 µL/min/mg in data set [2] (setting [12]). In addition, the “increase in intrinsic clearance with MAO-A inhibitor (Clorgyline) compared to SPL026 without MAO inhibitors” value in data set [1] (human liver mitochondrial fraction) was determined as 10 fold. Besides, the half-life at 5 μM in data set [5] was determined as 98.9 min; in data set [3] (setting [13]), 96.1 min; in data set [3] (setting [14]) it was 92.4 min; in data set [3] (setting [17]), 96.1 min; in data set [3] (setting [18]) it was 92.4 min. In addition, the hepatocyte CLint at 5 μM in data set [5] came out at 19.4 µL/min/1e6 cells; in data set [3] (setting [15]), 13.2 µL/min/1e6 cells; in data set [3] (setting [16]), 13.8 µL/min/1e6 cells. Moreover, the “Intrinsic Clearance” value in data set [2] (setting [7]) is listed as 161.0 μL/min/mg protein. Also, in data set [4] (setting [21]), the “slower intrinsic clearance with inclusion of MAO inhibitors” value is reported as around 4%. Besides, the Half-life % change in data set [4] (human hepatocytes) is 3.82%. For the same molecule, the “Intrinsic clearance % change” value in data set [4] (human hepatocytes) was −4.00%.

Turning to `[2H]C([2H])(Cc1c[nH]c2ccccc12)N(C)C` [SPL028i, α,α-dideutero-N,N-dimethyltryptamine], the figures for the half-life at 5 μM in data set [5], in data set [3] (setting [13]) and in data set [3] (setting [17]) were 233 min, 170 min and 170 min, respectively. The hepatocyte CLint at 5 μM in data set [5] amounted to 8.3 µL/min/1e6 cells; in data set [3] (setting [15]) it was 7.5 µL/min/1e6 cells; in data set [3] (setting [16]) it was 7.15 µL/min/1e6 cells. Moreover, the half-life in data set [2] (setting [7]) amounted to 92.8 min; in data set [2] (setting [8]), 86.1 min; in data set [2] (setting [9]), 99.4 min; in data set [2] (setting [10]), 82.6 min; in data set [2] (setting [11]), 72.1 min; in data set [2] (setting [20]) it was 77.3 min. In addition, the “quicker intrinsic clearance in the presence of MAO inhibitors” value in data set [4] (setting [21]) is listed as around 5%. Also, the “change in intrinsic clearance and half-life compared to SPL026” value in data set [4] (initial human hepatocyte studies) is listed as around 2 fold. For the same molecule, the Half-life % change in data set [4] (human hepatocytes) is recorded as −5.33%. Besides, in data set [4] (human hepatocytes), the “Intrinsic clearance % change” value was found to be 4.67%.

As to `[2H]C([2H])([2H])N(CCc1c[nH]c2ccccc12)C([2H])([2H])[2H]` [SPL028vii, N,N-bis(trideutero)dimethyltryptamine], the figures for the half-life in data set [2] (setting [10]), in data set [2] (setting [11]) and in data set [2] (setting [20]) were 9.4 min, 10.9 min and 10.2 min, respectively. The same molecule came in with a microsomal CLint in data set [2] (setting [12]) of 137 µL/min/mg.

In the case of `[2H]C([2H])([2H])N(C([2H])([2H])[2H])C([2H])([2H])Cc1c[nH]c2ccccc12` [SPL028viii, α,α-dideutero-N,N-bis(trideutero)dimethyltryptamine], in data set [2] (setting [7]), the “Intrinsic Clearance” value is on record as 12.7 μL/min/mg protein and the half-life was determined as 112.2 min. The “increase in metabolic stability” value in data set [2] (human mitochondrial fraction assays) is recorded as 14 fold. In data set [2] (setting [10]), this molecule had a half-life of 92.9 min. This molecule yielded a microsomal CLint in data set [2] (setting [12]) of 10.9 µL/min/mg.

Take `NCCc1c[nH]c2ccc(O)cc12` [Serotonin]: the half-life was 11.1 min in data set [1] (DMSO Vehicle (no inhibitor)); above 420 min in data set [1] (setting [19]); 9.3 min in data set [2] (setting [8]); 9.1 min in data set [2] (setting [9]); 9.1 min in data set [2] (setting [10]); 8.5 min in data set [2] (setting [11]). For the same molecule, the microsomal CLint is 125 µL/min/mg in data set [1] (DMSO Vehicle (no inhibitor)), below 3.3 µL/min/mg in data set [1] (setting [19]) and 151 µL/min/mg in data set [2] (setting [12]). Besides, the “Intrinsic Clearance” value in data set [2] (setting [7]) was 157.0 μL/min/mg protein. The half-life at 5 μM in data set [3] (setting [14]) and in data set [3] (setting [18]) was 33 min in each case. For the same molecule, the hepatocyte CLint at 5 μM in data set [3] (setting [15]) was found to be 10.1 µL/min/1e6 cells; in data set [3] (setting [16]), 38.6 µL/min/1e6 cells. Moreover, the Half-life % change in data set [4] (human hepatocytes) turned out to be 73.75%. Moreover, the “Intrinsic clearance % change” value in data set [4] (human hepatocytes) is recorded as −282.18%.

In general, half-life refers to how long it takes for the measured level to halve. Broadly, the microsomal CLint is the rate of metabolic loss divided by the concentration. High values mean faster metabolism, low ones greater metabolic stability. The term hepatocyte CLint denotes the capacity of the preparation to metabolise the compound, expressed as a volume cleared per time.
